Consider 22 molecules from article PMC3479139, “Diverse Small Molecule Inhibitors of Human Apurinic/Apyrimidinic Endonuclease APE1 Identified from a Screen of a Large Public Collection” (PLoS ONE, 2012).

Where only a bound is given, the exact number is not on record here.

The target of assay [1] is T1, APE1 (Homo sapiens, UniProt P27695).
T1 construct: made in house
Nature of the assay: Fluorescence polarization (FP) displacement assay of APE1 binding to AP-DNA probe.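 Further: TAMRA 5′-labeled duplex DNA with THF abasic site (5 nM) and APE1 (20 nM), Mg2+-free buffer, 15 min at room temperature, inhibition seen as lowered polarization.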 The following applies: read-out: FP IC50. For orientation: Polarisation of emitted light reports the rotation of a fluorescent probe.

Assay [2] addresses T1, APE1. Nature of the assay: Gel-based APE1 incision assay with fluorescence (TAMRA) detection. The class given is biochemical.
Description: To test the compounds’ inhibitory activity after the primary screen, two assays designed to monitor the cleavage of substrate to product through electrophoretic separation were utilized. The radiotracer incision assay, utilizing a ^32P-labeled substrate, was performed essentially as described [21], [31], [32]. Incision reactions utilizing ^32P-labeled substrate were carried out for 5 min at 37°C. After the addition of an equal volume of stop buffer (0.05% bromophenol blue and xylene cyanol, 20 mM EDTA, 95% formamide), the substrate and product were separated on a standard polyacrylamide denaturing gel and quantified by PhosphorImager analysis [32]. […] APE1 cleavage of the substrate results in a 18-mer TAMRA-labeled fragment which was separated by a non-denaturing polyacrylamide gel electrophoresis and quantitated in a Gel Doc XR imaging system, BioRad (Hercules, CA). The advantage of this assay is that it can be used in a relatively high throughput mode with the inhibitors tested at a range of concentrations (0.17 µM to 125 µM was used here). APE1 (0.15 nM) was added to a reaction mixture of 20 µL containing assay buffer (40 mM HEPES pH 7.5, 50 mM NaCl, 1 mM MgCl2 and 2 mM DTT), and labeled ds DNA substrate (final 75 nM). The mixture was incubated at RT for 15 min, and the reaction was stopped by the addition 20 µL of 2X dye stop solution (10% glycerol, 20 mM EDTA and bromophenol blue). Then 10 µL of the mixture was resolved on 20% polyacrylamide gel in 1X Tris-borate EDTA running buffer at 250 V for 40 min.
To eliminate false positive hits, all 595 confirmed molecules were tested for their ability to inhibit APE1 incision activity using biochemical assays that involve electrophoretic separation of the substrate and cleavage product.
Assay [3] concerns the target T1, APE1. Nature of the assay: Fluorogenic kinetic qHTS APE1 incision assay (primary screen and retest of cherrypicked samples).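 Further: purified APE1 cleaving a fluorophore/dark-quencher labelled 17-mer duplex DNA bearing a tetrahydrofuran AP site, fluorescence rise followed kinetically over the first 2 min, inhibition normalized to controls.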 The assay is classed as biochemical. For orientation: qHTS replaces the single test concentration by a dilution series.
Description: All screening operations were performed on a fully integrated robotic system (Kalypsys, San Diego, CA) [28] with library plates screened proceeding from the lowest to the highest concentration to minimize compound carryover [26]. Vehicle-only plates, with DMSO being pin-transferred to the entire column 5–48 compound area, were included regularly throughout the screen in order to record any systematic shifts in assay signal. During the screen, reagent bottles were kept at 4°C and all liquid lines were covered with aluminum foil to minimize degradation.
Screening data were corrected and normalized, and concentration–effect relationships was derived using in-house developed algorithms [25].
To screen for inhibitors of APE1 incision activity, we employed a purified-enzyme biochemical assay with a model substrate featuring a red-shifted fluorescent reporter in combination with a dark non-emitting quencher. These moieties were incorporated as end labels onto a 17-mer double-stranded DNA fragment containing a centrally-located tetrahydrofuran AP site sugar mimetic, which serves as the APE1 cleavage site. Upon APE1-catalyzed strand scission immediately 5′ to the AP site analog, the shortened oligodeoxynucleotide carrying the fluorescent reporter spontaneously dissociates from the rest of the substrate, leading to an increase in fluorescence due to its spatial separation from the dark quencher (Figure 1A).
Using a high-speed whole-plate fluorescence imager, the assay data for the entire screen was conducted in kinetic mode, with the APE1 incision reaction being monitored over the initial linear time frame of 2 min (Figure 1B). Thus, any inhibition associated with each sample was computed from the alteration in fluorescence intensity over the time-course measurement period, after normalization against the appropriate controls (Figure 1B, inset).
A further assay deals with T2, E. coli Endo IV (Escherichia coli, UniProt P0A6C1).
T2 construct: made in house
Nature of the assay: E. coli Endo IV profiling counterscreen.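 Further: selectivity counterscreen of candidate APE1 inhibitors against the bacterial endonuclease Endo IV, run in the same assay format as the primary APE1 high-throughput screen.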 The assay is classed as biochemical. The settings on record: read-out: EndoIV IC50. For orientation: A counterscreen serves to expose hits that act by an unwanted route or on another target.

Assay [4] concerns the target double-stranded 17-mer DNA fragment. Nature of the assay: ThO (Thiazole Orange) DNA displacement assay.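 Further: miniaturized displacement of the intercalating dye from unlabeled duplex DNA, used to flag nonspecific DNA binders, chiefly intercalators, groove binders may be missed.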 The assay is classed as binding. The settings on record: read-out: ThO-DNA binding IC50.
Excerpt: The double-stranded 17-mer DNA fragment used in the ThO DNA binding assay was of the same sequence as the fluorogenic HTS substrate but carried no dye labels.
(§1) In order to screen out nonselective compounds, such as non-specific DNA binders and inhibitors of related enzymes, we used a miniaturized ThO DNA displacement assay and a counterscreen against the bacterial endonuclease E. coli Endo IV, respectively, following the previously published protocols [21].
To detect screening hits that inhibit APE1 activity through non-specific DNA interactions, we employed a previously established miniaturized ThO dye displacement assay [21]. […] We note that the ThO assay reports primarily on DNA binders acting through intercalation, while potentially missing other types of DNA binders, such as those acting through the minor groove.
Setting [5] is: estimated IC50, fluorophore detection, entries 113-223, read-out: F-PAGE Assay IC50.
[6] abbreviates: initial quantitative high-throughput screen, read-out: APE1 qHTS IC50.
The mark [7] stands for this setting: retest of cherrypicked sample, read-out: APE1 Retest IC50.
The mark [8] stands for this setting: entries 113-223: fluorophore detection, estimated IC50, read-out: Gel-based electrophoretic separation assay with fluorophore detection, estimated IC50 (column headed Radiotracer Assay (%Activity)).

T1 sequence (P27695 whole entry): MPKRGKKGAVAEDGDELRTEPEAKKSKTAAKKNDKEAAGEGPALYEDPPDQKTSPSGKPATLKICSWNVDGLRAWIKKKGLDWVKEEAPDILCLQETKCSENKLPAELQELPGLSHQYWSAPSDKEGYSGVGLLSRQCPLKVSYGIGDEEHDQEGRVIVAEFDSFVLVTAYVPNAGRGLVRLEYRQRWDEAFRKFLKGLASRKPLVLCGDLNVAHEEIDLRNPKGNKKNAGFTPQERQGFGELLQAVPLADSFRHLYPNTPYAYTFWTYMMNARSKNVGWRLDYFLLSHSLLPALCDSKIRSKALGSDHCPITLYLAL
Excerpt for E. coli Endo IV: as §1
To probe the selectivity of the candidate APE1 inhibitors, we tested them against E. coli EndoIV [36], employing the same assay as used in the HTS.

Take `Nc1c(S(=O)(=O)O)cc(NC(=O)c2ccccc2)c2c1C(=O)c1ccccc1C2=O` [MLS001194971]: the IC50 at APE1 [1] is > 57 µM; at APE1 [2] (setting [5]) it was 7.9 µM; on APE1 [3] (setting [6]) it was 21.2 µM; at APE1 [3] (setting [7]), 18.2 µM; at E. coli Endo IV, > 57 µM; in assay [4], > 57 µM.

In the case of `Cc1cccc(NC(=O)CNC(=O)CCc2nc3sc4c(c3c(=O)[nH]2)CCCC4)c1C` [MLS001156641], the IC50 on APE1 [1] was > 57 µM; on APE1 [2] (setting [5]), 4 µM; at APE1 [3] (setting [6]) it was 10.6 µM; on APE1 [3] (setting [7]), 36.3 µM; on E. coli Endo IV it was > 57 µM; in assay [4], 45.7 µM.

As to `CC(C)(C)OC(=O)C[C@@H]1C/C=C\C[C@H](CC(=O)NCCO)C(=O)N2CCC[C@H]2COC1=O` [MLS002320191], the IC50 is > 57 µM at APE1 [1]; 7.9 µM on APE1 [2] (setting [5]); 6.7 µM on APE1 [3] (setting [6]); 20.4 µM at APE1 [3] (setting [7]); > 57 µM at E. coli Endo IV; > 57 µM in assay [4].

As for `NS(=O)(=O)c1ccc(N=Nc2ccc(=O)[nH]c2O)cc1` [MLS000738241], the IC50 on APE1 [1] was > 57 µM; on APE1 [2] (setting [5]) it was 3.5 µM; at APE1 [3] (setting [6]) it was 7.5 µM; on APE1 [3] (setting [7]), 12.9 µM; at E. coli Endo IV, > 57 µM; in assay [4] it was > 57 µM.

Turning to `O=C(CSc1nnc(CNC(=O)c2c(F)cccc2F)o1)NCc1ccco1` [MLS001235900], the IC50 on APE1 [1] was 18.2 µM; on APE1 [2] (setting [8]), 12.6 µM; at APE1 [3] (setting [6]) it was 10.6 µM; at APE1 [3] (setting [7]) it was 45.7 µM; on E. coli Endo IV it was > 57 µM; in assay [4] it was > 57 µM.

On to `Cc1ccc(NC(=O)C(c2ccccc2)N2CCN(CC(=O)N3CCOCC3)CC2)cc1Cl` (stereo not drawn) [MLS002162303], for which the IC50 at APE1 [1] was > 57 µM; at APE1 [2] (setting [5]), 3.5 µM; on APE1 [3] (setting [6]) it was 10.6 µM; on APE1 [3] (setting [7]) it was 9.1 µM; on E. coli Endo IV, > 57 µM; in assay [4], > 57 µM.

On to `Cc1coc2c(C)c3oc(=O)c(CCC(=O)N[C@@H](C)C(=O)N[C@@H](Cc4ccccc4)C(=O)O)c(C)c3cc12` [MLS001140219], for which the IC50 is > 57 µM on APE1 [1]; 20 µM on APE1 [2] (setting [8]); 13.4 µM at APE1 [3] (setting [6]); 18.2 µM at APE1 [3] (setting [7]); > 57 µM on E. coli Endo IV; > 57 µM in assay [4].

Consider `Cc1ccc(C)c(S(=O)(=O)Nc2ccc3oc(C)c(C(=O)O)c3c2)c1` [MLS000948181], for which the IC50 on APE1 [1] was > 57 µM; at APE1 [2] (setting [5]) it was 2.8 µM; on APE1 [3] (setting [6]) it was 13.4 µM; at APE1 [3] (setting [7]), 20.4 µM; on E. coli Endo IV, > 57 µM; in assay [4] it was > 57 µM.

Regarding `CCN(CC(=O)Nc1c(F)cccc1F)C(=O)/C=C/c1ccc2ccccc2n1` [MLS001128172], the IC50 at APE1 [1] was > 57 µM; at APE1 [2] (setting [5]) it was 4 µM; at APE1 [3] (setting [6]) it was 1.7 µM; at APE1 [3] (setting [7]) it was 20.4 µM; at E. coli Endo IV, > 57 µM; in assay [4], > 57 µM.

For the molecule `CCNc1nc(NCC)n2c(SCC(=O)Nc3ccc(OC(F)F)cc3)nnc2n1` [MLS001234379], the IC50 was > 57 µM at APE1 [1]; 7.1 µM at APE1 [2] (setting [5]); 10.6 µM at APE1 [3] (setting [6]); 11.5 µM on APE1 [3] (setting [7]); > 57 µM on E. coli Endo IV; > 57 µM in assay [4].

As to `Nc1c(/C=C2/C=CC(=O)C(O)=C2)c(=O)nc2sc(CC(=O)N3CCCC3)nn12` [MLS001139292], the IC50 at APE1 [1] is > 57 µM; at APE1 [2] (setting [5]), 1 µM; at APE1 [3] (setting [6]), 10.6 µM; at APE1 [3] (setting [7]), 6.5 µM; on E. coli Endo IV it was > 57 µM; in assay [4], > 57 µM.

On to `Cc1ccc(C)c(NC(=O)CN(C)C(=O)c2cccc(-n3cccc3)c2)c1` [MLS001161412], for which the IC50 at APE1 [1] is 12.9 µM; at APE1 [2] (setting [5]), 2.8 µM; on APE1 [3] (setting [6]), 3 µM; at APE1 [3] (setting [7]), 5.8 µM; on E. coli Endo IV, 16.2 µM; in assay [4] it was > 57 µM.

`CCOC(=O)C1=C(C)N=c2s/c(=C\c3ccc(OCC(=O)O)cc3)c(=O)n2C1c1ccc(Cl)cc1` (stereo not drawn) [MLS001178472]: the IC50 on APE1 [1] is > 57 µM; on APE1 [2] (setting [8]), 11.2 µM; on APE1 [3] (setting [6]), 10.6 µM; on APE1 [3] (setting [7]), 14.5 µM; at E. coli Endo IV it was > 57 µM; in assay [4] it was > 57 µM.

With `CCOc1ccc(NC(=O)c2cccc(-n3cccc3)c2)cc1S(=O)(=O)N1CCOCC1` [MLS002164959], the IC50 on APE1 [1] was > 57 µM; on APE1 [2] (setting [5]), 2.8 µM; at APE1 [3] (setting [6]), 1.3 µM; at APE1 [3] (setting [7]), 11.5 µM; at E. coli Endo IV it was > 57 µM; in assay [4], > 57 µM.

Consider `CN(CC(=O)Nc1cccc(F)c1)C(=O)c1cccc(-n2cccc2)c1` [MLS001071694], for which the IC50 on APE1 [1] was 22.9 µM; on APE1 [2] (setting [5]) it was 5 µM; at APE1 [3] (setting [6]) it was 3.4 µM; at APE1 [3] (setting [7]), 5.1 µM; at E. coli Endo IV, > 57 µM; in assay [4], > 57 µM.

`CC1(C)CC2CC(C)(CN2C(=O)COC(=O)c2ccc(O)cc2O)C1` (stereo not drawn) [MLS002251953]: the IC50 was > 57 µM at APE1 [1]; 15.8 µM on APE1 [2] (setting [8]); 10.6 µM at APE1 [3] (setting [6]); 14.5 µM on APE1 [3] (setting [7]); > 57 µM on E. coli Endo IV; > 57 µM in assay [4].

`CCOc1ccc(NC(=O)CN(C)C(=O)C2COc3ccccc3O2)cc1OCC` (stereo not drawn) [MLS002248300]: the IC50 is > 57 µM on APE1 [1]; 20 µM on APE1 [2] (setting [8]); 21.2 µM at APE1 [3] (setting [6]); 32.4 µM on APE1 [3] (setting [7]); > 57 µM on E. coli Endo IV; > 57 µM in assay [4].

Turning to `O=C(O)C1CCCCC1C(=O)Nc1cccc(Br)c1` (stereo not drawn) [MLS002152987], the IC50 at APE1 [1] is > 57 µM; on APE1 [2] (setting [5]) it was 0.9 µM; at APE1 [3] (setting [6]) it was 0.5 µM; on APE1 [3] (setting [7]) it was 5.1 µM; on E. coli Endo IV, > 57 µM; in assay [4], > 57 µM.

`COc1cc(-c2nnc(COC(=O)c3ccc(C)o3)o2)cc(OC)c1OC` [MLS001139127]: the IC50 at APE1 [1] is > 57 µM; at APE1 [2] (setting [8]), 14.1 µM; at APE1 [3] (setting [6]), 23.8 µM; on APE1 [3] (setting [7]) it was 32.4 µM; on E. coli Endo IV it was > 57 µM; in assay [4], > 57 µM.

For the molecule `Nc1c(/C=C2/C=CC(=O)C(O)=C2)c(=O)nc2sc(CC(=O)N3CCCCC3)nn12` [MLS001139223], the IC50 was > 57 µM on APE1 [1]; 2.5 µM on APE1 [2] (setting [5]); 1.9 µM on APE1 [3] (setting [6]); 2 µM at APE1 [3] (setting [7]); > 57 µM at E. coli Endo IV; > 57 µM in assay [4].

Take `Nc1nc(=S)c2ncn(C3OC(CO)C(O)C3O)c2[nH]1` (stereo not drawn) [MLS000738229]: the IC50 at APE1 [1] was > 57 µM; on APE1 [2] (setting [5]), 2.5 µM; on APE1 [3] (setting [6]) it was 13.4 µM; on APE1 [3] (setting [7]), 3.6 µM; at E. coli Endo IV it was > 57 µM; in assay [4], 28.9 µM.

Turning to `CCCN(C(=O)c1cccc(-n2cccc2)c1)c1c(N)n(Cc2ccccc2)c(=O)[nH]c1=O` [MLS001098232], the IC50 was 20.4 µM on APE1 [1]; 2.8 µM at APE1 [2] (setting [5]); 6.7 µM on APE1 [3] (setting [6]); 6.5 µM on APE1 [3] (setting [7]); > 57 µM on E. coli Endo IV; > 57 µM in assay [4].
